Experimental data taken from patent publication US8691865B2 (AbbVie Inc., priority 2008, dated 2014).
Read-outs that look alike come from different tables or passages of the source.

Molecular target: human Cav2.2 (Homo sapiens, UniProt Q00975)
Assay: Assessment of calcium channel activity using FLIPR (Ca2+ influx in IMR32 cells)
Type: cell-based
Outline: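 Human neuroblastoma IMR32 cells were seeded at 1−1.2×10^5 cells/well and cultured 48 h at 37 °C before FLIPR calcium influx measurement. Percent inhibition at each concentration was calculated against the no-inhibitor signal, and IC50 came from sigmoidal dose-response fits.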

[1] = read-out: IC50 (μM) or percent inhibition (* indicates 3 minute incubation, otherwise 60 minute), IC50, 60 minute pre-incubation with compound, IMR32 cells, 80 mM KCl depolarization

Chain of human Cav2.2 (Q00975 whole entry): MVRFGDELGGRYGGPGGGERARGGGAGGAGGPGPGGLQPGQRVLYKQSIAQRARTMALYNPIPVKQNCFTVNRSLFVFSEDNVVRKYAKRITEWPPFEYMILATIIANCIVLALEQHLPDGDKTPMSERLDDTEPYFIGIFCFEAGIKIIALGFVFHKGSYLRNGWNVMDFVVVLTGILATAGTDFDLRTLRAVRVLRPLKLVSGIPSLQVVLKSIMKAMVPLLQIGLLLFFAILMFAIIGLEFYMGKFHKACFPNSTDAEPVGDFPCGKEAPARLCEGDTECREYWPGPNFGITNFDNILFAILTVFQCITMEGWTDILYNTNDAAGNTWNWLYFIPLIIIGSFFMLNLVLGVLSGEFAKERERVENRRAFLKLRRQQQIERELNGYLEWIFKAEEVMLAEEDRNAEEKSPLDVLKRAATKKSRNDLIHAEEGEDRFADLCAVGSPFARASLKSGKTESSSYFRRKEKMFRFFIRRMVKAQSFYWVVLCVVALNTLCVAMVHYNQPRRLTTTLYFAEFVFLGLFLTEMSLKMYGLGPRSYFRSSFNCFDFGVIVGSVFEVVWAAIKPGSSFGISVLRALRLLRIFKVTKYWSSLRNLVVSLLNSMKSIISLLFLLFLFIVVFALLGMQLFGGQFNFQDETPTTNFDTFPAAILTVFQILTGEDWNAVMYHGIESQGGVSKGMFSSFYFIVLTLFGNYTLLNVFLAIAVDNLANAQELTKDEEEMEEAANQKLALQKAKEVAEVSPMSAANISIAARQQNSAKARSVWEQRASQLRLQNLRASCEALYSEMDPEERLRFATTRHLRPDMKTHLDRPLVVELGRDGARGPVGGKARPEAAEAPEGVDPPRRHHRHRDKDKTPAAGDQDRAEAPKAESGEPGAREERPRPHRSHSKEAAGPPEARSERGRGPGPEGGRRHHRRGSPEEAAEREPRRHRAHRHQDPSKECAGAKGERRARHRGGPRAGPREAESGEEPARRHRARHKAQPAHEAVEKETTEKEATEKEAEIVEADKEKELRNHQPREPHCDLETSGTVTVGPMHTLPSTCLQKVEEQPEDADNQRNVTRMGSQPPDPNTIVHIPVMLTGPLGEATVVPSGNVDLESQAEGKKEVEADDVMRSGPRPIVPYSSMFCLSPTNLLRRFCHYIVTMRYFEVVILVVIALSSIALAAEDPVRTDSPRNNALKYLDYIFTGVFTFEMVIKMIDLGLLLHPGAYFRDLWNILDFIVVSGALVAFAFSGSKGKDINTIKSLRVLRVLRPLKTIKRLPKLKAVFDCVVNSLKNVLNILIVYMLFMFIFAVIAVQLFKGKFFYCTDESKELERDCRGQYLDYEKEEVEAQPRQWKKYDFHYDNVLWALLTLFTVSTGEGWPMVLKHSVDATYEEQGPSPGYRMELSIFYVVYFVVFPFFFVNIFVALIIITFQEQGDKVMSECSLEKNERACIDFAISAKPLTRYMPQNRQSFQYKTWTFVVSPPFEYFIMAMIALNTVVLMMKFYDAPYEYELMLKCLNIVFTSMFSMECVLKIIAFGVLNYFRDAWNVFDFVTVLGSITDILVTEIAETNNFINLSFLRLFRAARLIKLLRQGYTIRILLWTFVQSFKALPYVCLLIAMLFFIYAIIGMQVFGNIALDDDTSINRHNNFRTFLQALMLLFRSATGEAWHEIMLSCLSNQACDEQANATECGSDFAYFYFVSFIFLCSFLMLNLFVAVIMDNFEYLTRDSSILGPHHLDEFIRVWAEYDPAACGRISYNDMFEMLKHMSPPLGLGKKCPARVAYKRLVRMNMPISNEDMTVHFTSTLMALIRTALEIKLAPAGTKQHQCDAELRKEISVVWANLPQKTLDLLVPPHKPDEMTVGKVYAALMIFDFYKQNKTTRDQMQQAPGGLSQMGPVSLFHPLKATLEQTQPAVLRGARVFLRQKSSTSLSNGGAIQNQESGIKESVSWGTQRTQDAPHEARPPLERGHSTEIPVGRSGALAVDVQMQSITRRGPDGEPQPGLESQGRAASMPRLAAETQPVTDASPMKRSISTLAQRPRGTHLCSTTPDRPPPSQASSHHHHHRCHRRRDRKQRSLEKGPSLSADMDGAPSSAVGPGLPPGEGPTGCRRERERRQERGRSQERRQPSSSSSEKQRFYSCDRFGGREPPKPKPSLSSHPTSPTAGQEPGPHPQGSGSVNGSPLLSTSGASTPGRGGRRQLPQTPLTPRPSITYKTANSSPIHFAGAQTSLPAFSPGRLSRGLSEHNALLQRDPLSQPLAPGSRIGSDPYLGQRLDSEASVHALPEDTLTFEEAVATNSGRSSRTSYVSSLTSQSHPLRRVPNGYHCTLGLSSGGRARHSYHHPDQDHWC
Chain of human Cav2.2 (P54289 25-956 partner limits assumed): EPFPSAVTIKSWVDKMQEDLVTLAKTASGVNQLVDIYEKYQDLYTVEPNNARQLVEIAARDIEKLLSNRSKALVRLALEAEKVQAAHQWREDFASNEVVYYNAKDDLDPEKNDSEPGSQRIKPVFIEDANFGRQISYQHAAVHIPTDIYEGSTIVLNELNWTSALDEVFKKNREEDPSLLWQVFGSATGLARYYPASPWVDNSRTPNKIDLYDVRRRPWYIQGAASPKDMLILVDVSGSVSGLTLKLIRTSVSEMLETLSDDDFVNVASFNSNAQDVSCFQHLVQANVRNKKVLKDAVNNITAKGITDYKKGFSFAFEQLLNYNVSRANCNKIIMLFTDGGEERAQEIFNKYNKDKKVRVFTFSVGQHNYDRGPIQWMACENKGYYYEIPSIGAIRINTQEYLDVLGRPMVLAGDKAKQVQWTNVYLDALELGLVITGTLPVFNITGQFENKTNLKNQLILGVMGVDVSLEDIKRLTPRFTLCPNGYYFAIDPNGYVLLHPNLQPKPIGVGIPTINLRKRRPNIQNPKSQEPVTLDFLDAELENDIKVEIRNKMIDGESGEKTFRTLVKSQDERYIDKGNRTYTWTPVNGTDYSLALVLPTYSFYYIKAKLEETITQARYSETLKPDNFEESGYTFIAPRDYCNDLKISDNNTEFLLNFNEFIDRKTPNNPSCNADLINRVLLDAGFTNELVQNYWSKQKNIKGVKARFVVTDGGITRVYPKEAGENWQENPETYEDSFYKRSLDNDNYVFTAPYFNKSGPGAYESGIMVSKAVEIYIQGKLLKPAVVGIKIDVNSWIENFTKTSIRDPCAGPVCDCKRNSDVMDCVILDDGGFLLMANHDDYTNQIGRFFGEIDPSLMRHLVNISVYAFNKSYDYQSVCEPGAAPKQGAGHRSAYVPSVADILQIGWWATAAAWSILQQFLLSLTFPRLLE
Chain of human Cav2.2 (P54289 957-1103 partner limits assumed): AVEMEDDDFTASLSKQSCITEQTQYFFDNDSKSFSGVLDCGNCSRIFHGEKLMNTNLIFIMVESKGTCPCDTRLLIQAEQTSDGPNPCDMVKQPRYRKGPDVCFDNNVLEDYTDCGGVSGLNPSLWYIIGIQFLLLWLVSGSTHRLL
Chain of human Cav2.2 (P54284 whole entry partner): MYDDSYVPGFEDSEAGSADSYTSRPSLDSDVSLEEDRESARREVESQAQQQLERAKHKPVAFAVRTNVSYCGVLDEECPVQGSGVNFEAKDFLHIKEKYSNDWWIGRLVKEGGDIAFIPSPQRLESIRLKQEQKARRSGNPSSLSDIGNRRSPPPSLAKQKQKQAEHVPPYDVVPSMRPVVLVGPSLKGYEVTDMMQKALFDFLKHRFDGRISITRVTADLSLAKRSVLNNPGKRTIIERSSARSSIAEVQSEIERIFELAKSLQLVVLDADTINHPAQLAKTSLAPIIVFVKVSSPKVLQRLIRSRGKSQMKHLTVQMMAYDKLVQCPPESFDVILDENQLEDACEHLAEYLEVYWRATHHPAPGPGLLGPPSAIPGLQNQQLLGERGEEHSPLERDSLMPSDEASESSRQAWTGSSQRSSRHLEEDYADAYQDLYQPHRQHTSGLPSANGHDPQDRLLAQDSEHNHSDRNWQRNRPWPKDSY

| Compound | IC50 [µM] | IC50 [1] [µM] |
| --- | --- | --- |
| CC(C)C(C(=O)N[C@H]1CC[C@@H]2CN(Cc3cccc(C(F)(F)F)c3)C[C@@H]21)C(C)C [Example 305, 2-isopropyl-3-methyl-N-{(3aR,4S,6aS)-2-[3-(trifluoromethyl)benzyl]octahydrocyclopenta[c]pyrrol-4-yl}butanamide] | 1.63 | – |
| O=S(=O)(c1ccc(C(F)(F)F)cc1Cl)N1C[C@H]2CC[C@H](Nc3ccc(C(F)(F)F)cn3)[C@H]2C1 [Example 295, (3aR,4S,6aS)-2-{[2-chloro-4-(trifluoromethyl)phenyl]sulfonyl}-N-[5-(trifluoromethyl)pyridin-2-yl]octahydrocyclopenta[c]pyrrol-4-amine] | – | 2.98 |
| CC(C)CC(=O)N[C@@H]1CC[C@H]2CN(Cc3ccccc3)C[C@H]21 [Example 236, N-[(3aS,4R,6aR)-2-benzyloctahydrocyclopenta[c]pyrrol-4-yl]-3-methylbutanamide] | > 30 | – |
| CCC[C@H](NC)C(=O)N[C@@H]1CC[C@H]2CN(Cc3ccc(C(F)(F)F)cc3)C[C@H]21 [Example 371, N^2-methyl-N^1-{(3aS,4R,6aR)-2-[4-(trifluoromethyl)benzyl]octahydrocyclopenta[c]pyrrol-4-yl}-L-norvalinamide] | 8.88 | – |
| CC(C)N[C@H]1CC[C@@H]2CN(S(=O)(=O)c3ccc(C(F)(F)F)cc3Cl)C[C@@H]21 [Example 284, (3aR,4S,6aS)-2-{[2-chloro-4-(trifluoromethyl)phenyl]sulfonyl}-N-isopropyloctahydrocyclopenta[c]pyrrol-4-amine] | – | 3.7 |
| CCC[C@H](NC)C(=O)N[C@H]1CC[C@@H]2CN(S(=O)(=O)c3ccc(C(F)(F)F)cc3)C[C@@H]21 [Example 405, N^2-methyl-N^1-((3aR,4S,6aS)-2-{[4-(trifluoromethyl)phenyl]sulfonyl}octahydrocyclopenta[c]pyrrol-4-yl)-L-norvalinamide] | – | 3.83 |
| CN[C@@H](CC(C)C)C(=O)N[C@@H]1CC[C@H]2CN(S(=O)(=O)c3cccc(C(F)(F)F)c3)C[C@H]21 [Example 182, N^2-methyl-N^1-((3aS,4R,6aR)-2-{[3-(trifluoromethyl)phenyl]sulfonyl}octahydrocyclopenta[c]pyrrol-4-yl)-L-leucinamide] | 1.45 | – |
| O=C(N[C@H]1CC[C@H]2CN(Cc3ccccc3F)C[C@H]21)C(C1CCCCC1)C1CCCCC1 [Example 55, 2,2-dicyclohexyl-N-[(3aS,4S,6aR)-2-(2-fluorobenzyl)octahydrocyclopenta[c]pyrrol-4-yl]acetamide] | 1.12 | – |
| O=C(N[C@H]1CC[C@H]2CN(Cc3cc(C(F)(F)F)cc(C(F)(F)F)c3)C[C@H]21)C(C1CCCCC1)C1CCCCC1 [Example 59, N-{(3aS,4S,6aR)-2-[3,5-bis(trifluoromethyl)benzyl]octahydrocyclopenta[c]pyrrol-4-yl}-2,2-dicyclohexylacetamide] | – | 0.51 |
| (3aR,4S,6aS)-N-(1H-pyrrolo[2,3-b]pyridin-2-ylmethyl)-2-[6-(trifluoromethyl)pyridin-2-yl]octahydrocyclopenta[c]pyrrol-4-amine [Example 693] | – | 1.42 |
| O=C(N[C@H]1CC[C@H]2CN(Cc3ccc(F)cc3)C[C@H]21)C(C1CCCCC1)C1CCCCC1 [Example 56, 2,2-dicyclohexyl-N-[(3aS,4S,6aR)-2-(4-fluorobenzyl)octahydrocyclopenta[c]pyrrol-4-yl]acetamide] | 0.74 | – |
| O=S(=O)(N[C@H]1CC[C@H]2CN(Cc3cccc(C(F)(F)F)c3)C[C@H]21)c1cccc(C(F)(F)F)c1 (relative stereo) [Example 185, 3-(trifluoromethyl)-N-{(3aS*,4S*,6aR*)-2-[3-(trifluoromethyl)benzyl]octahydrocyclopenta[c]pyrrol-4-yl}benzenesulfonamide] | – | 0.91 |
| CC(C)C[C@@H](NS(C)(=O)=O)C(=O)N[C@@H]1CC[C@H]2CN(Cc3cccc(C(F)(F)F)c3)C[C@H]21 [Example 171, N^2-(methylsulfonyl)-N^1-{(3aS,4R,6aR)-2-[3-(trifluoromethyl)benzyl]octahydrocyclopenta[c]pyrrol-4-yl}-D-leucinamide] | – | 6.16 |
| O=C(N[C@H]1CC[C@H]2CN(Cc3cccc(C(F)(F)F)c3)C[C@H]21)C1CCCCC1 (relative stereo) [Example 127, N-{(3aS*,4S*,6aR*)-2-[3-(trifluoromethyl)benzyl]octahydrocyclopenta[c]pyrrol-4-yl}cyclohexanecarboxamide] | 1.26 | – |
| CC(C)(C)C[C@H](NC(=O)OC(C)(C)C)C(=O)N[C@H]1CC[C@@H]2CN(C(=O)[C@H](CC(C)(C)C)NC(=O)OC(C)(C)C)C[C@@H]21 [Example 463, tert-butyl(S)-1-((3aR,4S,6aS)-4-((S)-2-(tert-butoxycarbonylamino)-4,4-dimethylpentanamido)hexahydrocyclopenta[c]pyrrol-2(1H)-yl)-4,4-dimethyl-1-oxopentan-2-ylcarbamate] | 2.03 | – |
| CC[C@H](C)[C@H](NC)C(=O)N[C@H]1CC[C@@H]2CN(Cc3ccccc3)C[C@@H]21 [Example 353, N^1-[(3aR,4S,6aS)-2-benzyloctahydrocyclopenta[c]pyrrol-4-yl]-N^2-methyl-L-isoleucinamide] | > 30 | – |

Now from value to compound:

| IC50 [µM] | IC50 [1] [µM] | Compound |
| --- | --- | --- |
| 1.3 | – | FC(F)(F)c1ccc(-c2nc(CN[C@H]3CC[C@@H]4CN(c5cccc(C(F)(F)F)n5)C[C@@H]43)c[nH]2)cc1 [Example 742, (3aR,4S,6aS)-N-({2-[4-(trifluoromethyl)phenyl]-1H-imidazol-4-yl}methyl)-2-[6-(trifluoromethyl)pyridin-2-yl]octahydrocyclopenta[c]pyrrol-4-amine] |
| 21.2 | – | Cc1ccc(N2C[C@H]3CC[C@H](NC(=O)[C@@H]4C[C@@H](F)CN4)[C@H]3C2)cc1 [Example 652, (4R)-4-fluoro-N-[(3aR,4S,6aS)-2-(4-methylphenyl)octahydrocyclopenta[c]pyrrol-4-yl]-L-prolinamide] |
| 2.56 | – | O=C(CC(O)C(F)(F)F)N[C@H]1CC[C@@H]2CN(c3cccc(C(F)(F)F)n3)C[C@@H]21 (stereo partly drawn) [Example 586, 4,4,4-trifluoro-3-hydroxy-N-{(3aR,4S,6aS)-2-[6-(trifluoromethyl)pyridin-2-yl]octahydrocyclopenta[c]pyrrol-4-yl}butanamide] |
| – | 3.2 | CCC[C@H](NC)C(=O)N[C@H]1CC[C@@H]2CN(S(=O)(=O)c3ccc(C(C)(C)C)cc3)C[C@@H]21 [Example 543, N^1-{(3aR,4S,6aS)-2-[(4-tert-butylphenyl)sulfonyl]octahydrocyclopenta[c]pyrrol-4-yl}-N^2-methyl-L-norvalinamide] |
| > 3 | – | CC[C@H](N)C(=O)N[C@H]1CC[C@@H]2CN(c3ccc(C(F)(F)F)cc3)C[C@@H]21 [Example 755, (2S)-2-amino-N-{(3aR,4S,6aS)-2-[4-(trifluoromethyl)phenyl]octahydrocyclopenta[c]pyrrol-4-yl}butanamide] |
| 2.59 | – | CN[C@@H](CC(C)C)C(=O)N[C@H]1CC[C@@H]2CN(c3cnccc3C(F)(F)F)C[C@@H]21 [Example 765, N^2-methyl-N-{(3aR,4S,6aS)-2-[4-(trifluoromethyl)pyridin-3-yl]octahydrocyclopenta[c]pyrrol-4-yl}-L-leucinamide] |
| 12.3 | – | CN[C@H](C(=O)N[C@H]1CC[C@@H]2CN(c3ccc(C(F)(F)F)cn3)C[C@@H]21)C(C)C [Example 763, N^2-methyl-N-{(3aR,4S,6aS)-2-[5-(trifluoromethyl)pyridin-2-yl]octahydrocyclopenta[c]pyrrol-4-yl}-L-valinamide] |
| 2.31 | – | CC[C@H](C)[C@H](NC)C(=O)N[C@H]1CC[C@@H]2CN(S(=O)(=O)c3ccc(C(F)(F)F)cc3)C[C@@H]21 [Example 411, N^2-methyl-N^1-((3aR,4S,6aS)-2-{[4-(trifluoromethyl)phenyl]sulfonyl}octahydrocyclopenta[c]pyrrol-4-yl)-L-isoleucinamide] |
| 1.55 | – | COc1ccc2[nH]c(CN[C@H]3CC[C@@H]4CN(c5cccc(C(F)(F)F)n5)C[C@@H]43)c(C)c2c1 [Example 668, (3aR,4S,6aS)-N-[(5-methoxy-3-methyl-1H-indol-2-yl)methyl]-2-[6-(trifluoromethyl)pyridin-2-yl]octahydrocyclopenta[c]pyrrol-4-amine] |
| 1.79 | – | N[C@@H](CC1CCCCC1)C(=O)N[C@H]1CC[C@@H]2CN(S(=O)(=O)c3ccc(C(F)(F)F)cc3)C[C@@H]21 [Example 426, 3-cyclohexyl-N^1-((3aR,4S,6aS)-2-{[4-(trifluoromethyl)phenyl]sulfonyl}octahydrocyclopenta[c]pyrrol-4-yl)-L-alaninamide] |
| 0.5 | – | CC(C)(C)[C@H](N)C(=O)N[C@H]1CC[C@@H]2CN(c3cccc(C(F)(F)F)n3)C[C@@H]21 [Example 591, 3-methyl-N-{(3aR,4S,6aS)-2-[6-(trifluoromethyl)pyridin-2-yl]octahydrocyclopenta[c]pyrrol-4-yl}-L-valinamide] |
| 2.77 | – | CN[C@@H](CC1CC1)C(=O)N[C@H]1CC[C@@H]2CN(c3ccc(OC(F)(F)F)cc3)C[C@@H]21 [Example 775, 3-cyclopropyl-N^2-methyl-N-{(3aR,4S,6aS)-2-[4-(trifluoromethoxy)phenyl]octahydrocyclopenta[c]pyrrol-4-yl}-L-alaninamide] |
| – | 12.4 | CN[C@@H](CC(C)C)C(=O)N[C@@H]1CC[C@H]2CN(S(=O)(=O)c3ccccc3)C[C@H]21 [Example 448, N^2-methyl-N^1-[(3aS,4R,6aR)-2-(phenylsulfonyl)octahydrocyclopenta[c]pyrrol-4-yl]-L-leucinamide] |
| 0.7 | – | O=C(N[C@H]1CC[C@@H]2CN(c3cccc(C(F)(F)F)n3)C[C@@H]21)c1cc(Cl)c[nH]1 [Example 575, 4-chloro-N-{(3aR,4S,6aS)-2-[6-(trifluoromethyl)pyridin-2-yl]octahydrocyclopenta[c]pyrrol-4-yl}-1H-pyrrole-2-carboxamide] |
| 6.93 | – | CN[C@@H](CC(C)C)C(=O)N[C@H]1CC[C@@H]2CN(c3cccnc3C(F)(F)F)C[C@@H]21 [Example 767, N^2-methyl-N-{(3aR,4S,6aS)-2-[2-(trifluoromethyl)pyridin-3-yl]octahydrocyclopenta[c]pyrrol-4-yl}-L-leucinamide] |
